# Where a name gives a salt, the structure may show the parent alone.
# How the values were obtained:
# [1] = biological target: T1, H3 receptors (Cavia porcellus, UniProt Q9JI35); assay: H3-receptor binding assay (guinea pig brain membranes, [3H]R-α-methyl histamine or [3H]Nα-methyl histamine); conditions: for inhibition at 2 µg/mL: final concentration 2 μg/ml, HCl salt; for Ki: HCl salt of the indicated compound, read-out: H3 Ave Ki
# T1 construct: The source of the H3 receptors in this experiment was guinea pig brain; from tissue; host or cells: guinea pig brain membranes
# Protocol: General Procedure for H3-Receptor Binding Assay
# The source of the H3 receptors in this experiment was guinea pig brain. The animals weighed 400-600 g. The brain tissue was homogenized with a solution of 50 mM Tris, pH 7.5. The final concentration of tissue in the homogenization buffer was 10% w/v. The homogenates were centrifuged at 1,000×g for 10 min. in order to remove clumps of tissue and debris. The resulting supernatants were then centrifuged at 50,000×g for 20 min. in order to sediment the membranes, which were next washed three times in homogenization buffer (50,000×g for 20 min. each). The membranes were frozen and stored at −70° C. until needed.
# All compounds to be tested were dissolved in DMSO and then diluted into the binding buffer (50 mM Tris, pH 7.5) such that the final concentration was 2 μg/ml with 0.1% DMSO. Membranes were then added (400 μg of protein) to the reaction tubes. The reaction was started by the addition of 3 nM [^3H]R-α-methyl histamine (8.8 Ci/mmol) or 3 nM [^3H]N^α-methyl histamine (80 Ci/mmol) and continued under incubation at 30° C. for 30 min. Bound ligand was separated from unbound ligand by filtration, and the amount of radioactive ligand bound to the membranes was quantitated by liquid scintillation spectrometry. All incubations were performed in duplicate and the standard error was always less than 10%. Compounds that inhibited more than 70% of the specific binding of radioactive ligand to the receptor were serially diluted to determine a Ki (nM). The results are given in the Table 1 for the HCl salt of the indicated compound.
# [2] = biological target: T2, Histamine H1 receptor (Rattus norvegicus, UniProt P31390); assay: H1-receptor binding assay (rat brain membranes, [3H]pyrilamine); conditions: for Ki: Cheng-Prusoff from IC50, HCl salt, read-out: H1 Ave Ki; for inhibition at 1 µg/mL: concentration not given (top test concentration 1 μg/ml), HCl salt
# T2 construct: The tissue source was male Sprague-Dawley rat brain; tissue Rockland Corporation, Gilbertsville, Pa; host or cells: male Sprague-Dawley rat brain membranes
# Excerpt: General Procedure for H1-Receptor Binding Assay
# The procedure used was based on that disclosed in V.T. Tran et al, “Histamine H1 receptors identified in mammalian brain membranes with [H-3]mepyramine”, Proc. Natl. Acad. Sci. U.S.A. 75 (1978) 6290-6294.
# I. Tissue Preparation Protocol for Histamine H1 Receptor Binding Assay:
# 1. The tissue source was male Sprague-Dawley rat brain. These were purchased, stripped and frozen (available from Rockland Corporation, Gilbertsville, Pa.). The buffer used was ice-cold 50 mM Tris-HCl, pH 7.5. (The pH was determined at 25° C.)
# 2. The brains were spread out on plastic wrap on the benchtop and allowed to thaw for 10-15 min. After this, everything was kept ice-cold.
# 3. Two brains were put in each 50 ml round bottom centrifuge tube and 25 ml of buffer was added. Then they were broken up with a Polytron (from Brinkmann Instruments, Westbury, N.Y.) equipped with a PT-10 tip at setting 6 for 30 sec.
# 4. The volume in the tube was brought up to 45 ml and mixed and the particulate material was centrifuged at 1000×g (3000 rpm, SS-34 rotor) for 10 min to remove nuclei and unbroken cells.
# 5. Pellets were discarded and the supernatants were centrifuged 10 min at 50,000×g (20,000 rpm, SS-34 rotor).
# 6. The high-speed pellets were resuspended in a volume of Tris buffer equal to the original ([…]), the contents of all tubes were pooled, and a sample was taken for BCA protein assay. The material was aliquotted, 45 ml per round-bottom tube, and the resuspension was recentrifuged. The yield of protein was approximately 20 mg/brain, so there was about 40 mg of protein per tube.
# 7. Pellets were frozen at −80° C.
# 1. FDCL and comparative compounds for assay were independently solubilized at 1mg/ml DMSO by vortexing, or if necessary by sonication. The first dilution, 100-fold, was made in 50 mM Tris-HCl, pH 7.5, at room temperature. The three or four subsequent ten-fold serial dilutions were made in 1% DMSO/50 mM Tris-HCl, pH 7.5. Drug solutions and assay plates were kept at room temperature during the course of the assay set up.
# 2. Test compounds were assayed at four or five concentrations: 1, 0.1, 0.01, 0.001, and 0.0001 μg/ml. Twenty μl of drug solution was pipeted into each of three wells.
# 3. [^3H]Pyrilamine was diluted approximately 2000-fold with ice-cold […] Tris-HCl, pH 7.5 (to a working concentration of 20-25 nM), and put on ice.
# 4. A frozen tissue pellet was thawed in a 25° C. water bath, resuspended in 50 mM Tris-HCl, pH 7.5, at 1.7-2 mg/ml by brief break-up on the Polytron, and put on ice.
# 5. Twenty μl of diluted [^3H]pyrilamine was added to each well.
# 6. One hundred fifty μl of tissue suspension was added to each well.
# 7. The top of the plate was covered and it was placed in a 25° C. shaking water bath (about 60 oscillations/min) for 30 min.
# 8. Samples were filtered on a Tomtec Mach 2 harvester (available from Tomtec Corporation, Orange, Conn.) through a GF/B filter mat (from Wallac, Inc., Gaithersburg, Md.) presoaked in 0.3% polyethylenimine. Each sample was thrice washed with ice-cold 50 mM Tris-HCl, pH 7.5 dried 20 sec on the Tomtec, and dried 3-4 min in a microwave oven on a paper towel. The filter was impregnated with MELTILEX brand wax scintillant (from Wallac Corporation) and counted on a Betaplate scintillation counter (from Wallac Corporation).
# 9. Specific binding was determined as the difference between total and nonspecific binding. The percent inhibition in the presence of inhibitor or standard was determined using the formula: [1-(sample binding-nonspecific binding)/specific binding]×100 For compounds that inhibit more than 50% at 1 μg/ml, an IC50 value was interpolated from proximate concentrations. […]
# T1 sequence (Q9JI35 whole entry): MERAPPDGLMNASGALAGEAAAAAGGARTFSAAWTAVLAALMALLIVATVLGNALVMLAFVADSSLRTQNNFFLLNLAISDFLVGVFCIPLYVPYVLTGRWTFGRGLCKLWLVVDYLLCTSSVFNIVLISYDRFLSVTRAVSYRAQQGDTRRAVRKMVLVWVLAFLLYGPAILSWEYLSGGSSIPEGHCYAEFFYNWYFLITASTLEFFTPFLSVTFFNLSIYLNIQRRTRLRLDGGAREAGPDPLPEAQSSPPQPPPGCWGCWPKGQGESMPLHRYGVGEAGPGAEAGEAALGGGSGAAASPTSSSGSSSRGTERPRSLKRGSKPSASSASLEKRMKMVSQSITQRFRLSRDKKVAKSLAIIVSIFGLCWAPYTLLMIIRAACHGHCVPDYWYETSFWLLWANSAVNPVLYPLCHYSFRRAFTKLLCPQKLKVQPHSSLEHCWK
# T2 sequence (P31390 whole entry): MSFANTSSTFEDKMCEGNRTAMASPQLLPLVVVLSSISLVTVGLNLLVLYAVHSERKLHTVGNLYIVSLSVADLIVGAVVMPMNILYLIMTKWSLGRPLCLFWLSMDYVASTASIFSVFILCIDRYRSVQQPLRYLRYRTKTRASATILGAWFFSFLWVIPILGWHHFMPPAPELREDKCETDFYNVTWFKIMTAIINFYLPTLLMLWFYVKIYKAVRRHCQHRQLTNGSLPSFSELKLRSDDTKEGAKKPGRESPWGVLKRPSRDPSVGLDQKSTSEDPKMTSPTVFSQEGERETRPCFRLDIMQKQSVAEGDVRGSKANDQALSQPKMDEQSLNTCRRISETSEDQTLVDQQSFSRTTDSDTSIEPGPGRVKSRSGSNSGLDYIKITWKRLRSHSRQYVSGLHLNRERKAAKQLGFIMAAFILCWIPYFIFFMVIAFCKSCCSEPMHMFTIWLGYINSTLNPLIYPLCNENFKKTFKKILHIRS
SMILES,inhibition at 2 µg/mL [1] [%],Ki [2] [nM],inhibition at 1 µg/mL [2] [%],Ki [1] [nM],melting point
O=C(c1c[nH]cn1)N1CCN(C2c3ccc(Cl)cc3CCc3cccnc32)CC1 (centres unmarked),18,300,42,,
Cn1cnc(CN2CCN(C3c4ccc(Cl)cc4CCc4cccnc43)CC2)c1 (centres unmarked),5,24,84,,
Clc1ccc2c(c1)CCc1cccnc1C2N1CCN(CCCCCc2c[nH]cn2)CC1 (centres unmarked),,12.5,,32,
"Clc1ccc2c(c1)CCc1cccnc1C2N1CCN(Cc2c[nH]cn2)CC1 (racemic) [1-(8-Chloro-6,11-dihydro-5H-benzo[5,6]cyclohepta[1,2-b]pyridin-11-yl)-4-[(1H-imidazol-4-yl)-methyl]-piperazine]",,36.8,,150,
"Clc1ccc2c(c1)CCc1cccnc1C2N1CCN(Cc2c[nH]cn2)CC1 (racemic) (as salt: HCl) (hydrate or solvate) [1-(8-Chloro-6,11-dihydro-5H-benzo[5,6]cyclohepta[1,2-b]pyridin-11-yl)-4-[(1H-imidazol-4-yl)-methyl]-piperazine]",,,,,190.5 to 192 °C (dec.)
Clc1ccc2c(c1)CCc1cccnc1C2C1CCN(CCCCc2c[nH]cn2)CC1 (centres unmarked),,14.3,,42,
Clc1ccc2c(c1)CCc1cccnc1C2=C1CCN(Cc2c[nH]cn2)CC1,,16,,660,
"Clc1ccc2c(c1)CCc1cccnc1C2N1CCN(Cc2c[nH]cn2)CC1 (single isomer, unassigned; (-)) [(−)-(8-Chloro-6,11-dihydro-5H-benzo[5,6]cyclohepta[1,2-b]pyridin-11-yl)-4-[(1H-imidazol-4-yl)methyl]-piperazine]",,15.4,,133,
O=C(CCc1c[nH]cn1)N1CCC(=C2c3ccc(Cl)cc3CCc3cccnc32)CC1,47,,,,
Clc1ccc2c(c1)CCc1cccnc1C2=C1CCN(CCCCCc2c[nH]cn2)CC1,,2.5,,26.5,
"Clc1ccc2c(c1)CCc1cccnc1C2N1CCN(CCCCc2c[nH]cn2)CC1 (centres unmarked) (as salt: HCl) [Example 12, 8-Chloro-6,11-dihydro-11-[4-[4-(1H-imidazol4-yl)butyl]-1-piperazinyl]-5H-benzo[5,6]cyclohepta[1,2-b]pyridine]",,,,,165 to 170 °C (dec.)
Clc1ccc2c(c1)CCc1cccnc1C2N1CCN(CCCCCCc2c[nH]cn2)CC1 (centres unmarked),,8,,41,
Clc1ccc2c(c1)CCc1cccnc1C2=C1CCN(CCCCCCc2c[nH]cn2)CC1,,12,,33.5,
Clc1ccc2c(c1)CCc1cccnc1C2=C1CCN(CCCc2c[nH]cn2)CC1,,4.1,,260,
Clc1ccc2c(c1)CCc1cccnc1C2N1CCN(CCCCc2c[nH]cn2)CC1 (centres unmarked),,31.5,,68.5,
"Clc1ccc2c(c1)CCc1cccnc1C2C1CCN(CCCCCc2c[nH]cn2)CC1 (centres unmarked) (as salt: hydrochloride) [Example 13, 8-chloro-6,11-dihydro-11-[1-[5-(1H-imidazol-4-yl)pentyl]-4-piperidinyl]-5H-benzo[5,6]cyclohepta[1,2-b]pyridine]",,,,,164 to 170 °C (dec.)
Clc1ccc2c(c1)CCc1cccnc1C2C1CCN(CCCCCc2c[nH]cn2)CC1 (centres unmarked),,7,,22.5,
Clc1ccc2c(c1)CCc1cccnc1C2=C1CCN(CCCCc2c[nH]cn2)CC1,,10.5,,25.2,
Clc1ccc2c(c1)CCc1cccnc1C2C1CCN(CCCCCCc2c[nH]cn2)CC1 (centres unmarked),,5.5,,27.5,
"Clc1ccc2c(c1)CCc1cccnc1C2C1CCN(Cc2c[nH]cn2)CC1 (single isomer, unassigned) [drawing 61]",,182,,91,
O=C(OCCCCc1c[nH]cn1)N1CCN(C2c3ccc(Cl)cc3CCc3cccnc32)CC1 (centres unmarked),,,36,148,
O=C(CCc1c[nH]cn1)N1CCN(C2c3ccc(Cl)cc3CCc3cccnc32)CC1 (centres unmarked),44,200,,,
"Clc1ccc2c(c1)CCc1cccnc1C2=C1CCN(CCCCCCc2c[nH]cn2)CC1 (as salt: hydrochloride) (hydrate or solvate) [Example 14, 8-Chloro-6,11-dihydro-11-[1-[6-(1H-imidazol-4-yl)hexyl]-4-piperidinylidene]-5H-benzo[5,6]cyclohepta[1,2-b]pyridine]",,,,,162 to 165 °C (dec.)
"Clc1ccc2c(c1)CCc1cccnc1C2C1CCN(Cc2c[nH]cn2)CC1 (single isomer, unassigned) [drawing 60]",15,1.2,,,
Clc1ccc2c(c1)CCc1cccnc1C2N1CCN(CCc2c[nH]cn2)CC1 (centres unmarked),53,5.6,,,
Clc1ccc2c(c1)CCc1cccnc1C2N1CCN(CCCc2c[nH]cn2)CC1 (centres unmarked),,7.5,,173,
O=C(NCCCCc1c[nH]cn1)N1CCN(C2c3ccc(Cl)cc3CCc3cccnc32)CC1 (centres unmarked),,250,,47,
"Clc1ccc2c(c1)CCc1cccnc1C2N1CCN(Cc2c[nH]cn2)CC1 (single isomer, unassigned; (+)) [(+)-(8-Chloro-6,11-dihydro-5H-benzo[5,6]cyclohepta[1,2-b]pyridin-11-yl)-4-[(1H-imidazol-4-yl)methyl]-piperazine]",,4.6,,121,
